Measurements reported in PMC6320956, “O-Aminoalkyl-O-Trimethyl-2,3-Dehydrosilybins: Synthesis and In Vitro Effects Towards Prostate Cancer Cells” (Molecules, 2018).

Tests used:
Format in all cases: cell-based, human
[1] = system: LNCaP cells; experiment: WST-1 cell proliferation assay, LNCaP; conditions: for IC50: Homo sapiens, LNCaP, 72 h, WST-1, three days of exposure, mean ± SD, n = 3; for IC50 (Silibinin)/IC50(Derivative) LNCaP: fold potency relative to silibinin
Method: (§1) The in vitro antiproliferative activities of six 7-O-substituted and 26 3-O-substituted silybin derivatives were evaluated using the WST-1 cell proliferation assay, according to the procedure as described in the Experimental Section in both androgen-sensitive (LNCaP) and androgen-insensitive (PC-3 and DU145) human prostate cancer cell lines. Silibinin and docetaxel were used as a positive control for comparison in the parallel experiments and the IC50 values calculated from the dose-response curves are summarized in Table 1. […] A three-carbon linker in 11 and 29, as well as a five-carbon linker in 31, 37 and 40, are beneficial to the potency.
(§2) All cell lines were initially purchased from American Type Culture Collection (ATCC^TM) (Manassas, VA, USA). The PC-3 and LNCaP prostate cancer cell lines were routinely cultured in RPIM-1640 medium supplemented with 10% FBS and 1% penicillin/streptomycin. The DU145 prostate cancer cells were routinely cultured in Eagle’s Minimum Essential Medium (EMEM) supplemented with 10% FBS and 1% penicillin/streptomycin. Cultures were maintained in a high humidity environment supplemented with 5% carbon dioxide at a temperature of 37 °C.
(§3) PC-3, DU145, or LNCaP cells were plated in 96-well plates at a density of 3,200 per well in 200 µL of culture medium. The cells were then separately treated with silibinin, or synthesized silibinin derivatives, at five different doses for three days, while equal treatment volumes of DMSO (0.25%) were used as the vehicle control. The cells were cultured in a CO2 incubator at 37 °C for three days. A total of 10 µL of the premixed WST-1 cell proliferation reagent (Clontech) was added to each well. After mixing gently for one min on an orbital shaker, the cells were incubated for an additional 3 h at 37 °C. To ensure a homogeneous distribution of color, it is important to mix gently on an orbital shaker for one min. The absorbance of each well was measured using a microplate reader (Synergy HT, BioTek, Winooski, VT, USA) at a wavelength of 430 nm. […] For calculating the IC50 values, a linear proliferative inhibition was made based on at least five dosages for each compound.

[2] = system: DU145 cells; experiment: WST-1 cell proliferation assay, DU145; conditions: for IC50: Homo sapiens, DU-145, 72 h, WST-1, three days of exposure, mean ± SD, n = 3; for IC50 (Silibinin)/IC50(Derivative) DU145: fold potency relative to silibinin
Method: as §1, §2, §3

[3] = system: PC-3 cells; experiment: WST-1 cell proliferation assay, PC-3; conditions: for IC50: Homo sapiens, PC-3, 72 h, WST-1, three days of exposure, mean ± SD, n = 3; for IC50 (Silibinin)/IC50(Derivative) PC-3: fold potency relative to silibinin
Method: as §1, §2, §3

SMILES | IC50 [1] [µM] | IC50 (Silibinin)/IC50(Derivative) LNCaP [1] | IC50 [2] [µM] | IC50 (Silibinin)/IC50(Derivative) DU145 [2] | IC50 [3] [µM] | IC50 (Silibinin)/IC50(Derivative) PC-3 [3]
COc1ccc(C2Oc3cc(-c4oc5cc(OCCCN6CCOCC6)cc(OC)c5c(=O)c4OC)ccc3OC2CO)cc1OC (stereo not drawn) [Compound 13] | 12.7 ± 6.28 | 3 | 45.1 ± 11.5 | 2 | 26.5 ± 1 | 3
COc1cc(OC)c2c(=O)c(OCCCN3CCN(C)CC3)c(-c3ccc4c(c3)OC(c3ccc(OC)c(OC)c3)C(CO)O4)oc2c1 (stereo not drawn) [Compound 44] | 12.8 ± 7.8 | 3 | 18.6 ± 7.67 | 5 | 8.45 ± 2.89 | 9
COc1cc(OC)c2c(=O)c(OCCCCCBr)c(-c3ccc4c(c3)OC(c3ccc(OC)c(OC)c3)C(CO)O4)oc2c1 (stereo not drawn) [Compound 19] | 5.19 ± 2.08 | 8 | 8.13 ± 0.42 | 11 | 5.76 ± 1.36 | 13
COc1cc(OC)c2c(=O)c(OCCCCCN3CCNCC3)c(-c3ccc4c(c3)OC(c3ccc(OC)c(OC)c3)C(CO)O4)oc2c1 (stereo not drawn) [Compound 43] | 14.4 ± 7.49 | 3 | 48.1 ± 16.3 | 2 | 7.87 ± 1.47 | 9
CCN(CC)CCCCCOc1c(-c2ccc3c(c2)OC(c2ccc(OC)c(OC)c2)C(CO)O3)oc2cc(OC)cc(OC)c2c1=O (stereo not drawn) [Compound 25] | 6.33 ± 0.34 | 7 | 6.64 ± 0.54 | 14 | 6.41 ± 0.4 | 11
COc1cc(OC)c2c(=O)c(OCCCN3CCCC3)c(-c3ccc4c(c3)OC(c3ccc(OC)c(OC)c3)C(CO)O4)oc2c1 (stereo not drawn) [Compound 32] | 5.89 ± 0.3 | 7 | 14.1 ± 2.79 | 7 | 2.86 ± 0.79 | 25

Other lines, results leading:

IC50 [1] [µM] | IC50 (Silibinin)/IC50(Derivative) LNCaP [1] | IC50 [2] [µM] | IC50 (Silibinin)/IC50(Derivative) DU145 [2] | IC50 [3] [µM] | IC50 (Silibinin)/IC50(Derivative) PC-3 [3] | SMILES
3.89 ± 0.54 | 11 | 8.39 ± 1.38 | 11 | 2.03 ± 0.69 | 36 | CCCN(CCC)CCCOc1c(-c2ccc3c(c2)OC(c2ccc(OC)c(OC)c2)C(CO)O3)oc2cc(OC)cc(OC)c2c1=O (stereo not drawn) [Compound 26]
2.28 ± 0.42 | 19 | 7.26 ± 1.12 | 13 | 2.37 ± 0.7 | 31 | COc1cc(OC)c2c(=O)c(OCCCN3CCCCC3)c(-c3ccc4c(c3)OC(c3ccc(OC)c(OC)c3)C(CO)O4)oc2c1 (stereo not drawn) [Compound 35]
3.84 ± 0.51 | 11 | 3.07 ± 0.51 | 30 | 3.77 ± 0.41 | 19 | CCCCN(CCCC)CCCCOc1c(-c2ccc3c(c2)OC(c2ccc(OC)c(OC)c2)C(CO)O3)oc2cc(OC)cc(OC)c2c1=O (stereo not drawn) [Compound 30]
5.13 ± 0.89 | 9 | 9.97 ± 3.34 | 9 | 5.15 ± 2.13 | 14 | COc1cc(OC)c2c(=O)c(OCCCCN(C)C)c(-c3ccc4c(c3)OC(c3ccc(OC)c(OC)c3)C(CO)O4)oc2c1 (stereo not drawn) [Compound 21]
4.58 ± 1.77 | 10 | 6.85 ± 0.77 | 14 | 5.3 ± 0.66 | 14 | COc1cc(OC)c2c(=O)c(OCCCCN3CCNCC3)c(-c3ccc4c(c3)OC(c3ccc(OC)c(OC)c3)C(CO)O4)oc2c1 (stereo not drawn) [Compound 42]
0.0002 ± 0.0001 | – | 0.0012 ± 0.0003 | – | 0.0019 ± 0.0006 | – | CC(=O)O[C@@]12CO[C@@H]1C[C@H](O)[C@@]1(C)C(=O)[C@H](O)C3=C(C)[C@@H](OC(=O)[C@H](O)[C@@H](NC(=O)OC(C)(C)C)c4ccccc4)C[C@@](O)([C@@H](OC(=O)c4ccccc4)[C@H]21)C3(C)C [Docetaxel, docetaxel, reference compound]
